Patent publication US5804549A, “Compositions with activity against helicobacter” (AMBI Inc., priority 1996, dated 1998)

Tested on: H. pylori strain ATCC 43504
Assay: bactericidal activity: survival of bacteria by viable counts (CFU/ml)
Assay type: cell-based, Helicobacter pylori
Procedure: All tests of bactericidal activity in this example were conducted for 30 minutes at 37° C. The parameter measured was survival of bacteria exposed to GML and/or nisin, as determined by viable counts (colony forming units per ml [CFU/ml]) determined by standard dilution and plating techniques. Media, growth and test conditions were as follows: All cultures of Helicobacter were incubated under microaerobic conditions in GasPak. H. pylori was cultured for 2 to 4 days on Trypticase Soy agar+5% defibrinated sheep blood and then inoculated into NYCIII broth and grown overnight with gentle shaking. [NYCIII broth contains, per liter: 1 g soluble starch (Difco), 15 g proteose peptone #3 (Difco), 5 g NaCl, 4 gK2 HPO4, 1 g KH2 PO4, 5 g glucose, 25 ml fresh yeast extract (Gibco), 120 ml gamma-globulin-free horse serum (Sigma)]. Suspensions for testing the activity of GML and nisin were in 10% sucrose. Viable counts were determined after 3-5 days' growth on Trypticase Soy agar-5% sheep blood.
A suspension of bacteria was divided and exposed to different concentrations of the agents, singly or combined. Survival of bacteria is expressed relative to the unincubated (zero time) control suspension. Nisin alone, at concentrations between 30 and 300 μg/ml, had little or no effect on the viability of H. pylori (survival ≥10%). At concentrations of 1 and 3 μg/ml GML, in the absence of nisin, there was also little or no reduction in the viability of the inoculum (survival≥10%). […] When the bacteria were exposed to 10 μg/ml of GML alone, again more than 10% of the bacteria survived.

| Molecule | Survival of bacteria relative to the unincubated (zero time) control suspension (10 μg/ml of GML alone, 30 minutes at 37° C.) | effect on the viability of H. pylori (GML 10 μg/ml administered alone) | Survival of bacteria relative to the unincubated (zero time) control suspension (GML 1 and 3 μg/ml, in the absence of nisin, 30 minutes at 37° C.) | effect on viability of the bacterial suspensions (GML alone, 30 or 100 μg/ml, 30 minutes at 37° C.) | effect on the viability of H. pylori (nisin 30-100 μg/ml administered alone) | Survival of bacteria relative to the unincubated (zero time) control suspension (nisin alone, 30 to 300 μg/ml, 30 minutes at 37° C., 10% sucrose, no chelator) |
| --- | --- | --- | --- | --- | --- | --- |
| CCCCCCCCCCCC(=O)OCC(O)CO (stereo not drawn) [GML, Glycerol monolaurate] | more than 10% | little effect on the viability | ≥ 10% | sterilized the bacterial suspensions |  |  |
| nisin |  |  |  |  | little effect on the viability | ≥ 10% |
